Data from patent publication US12053736B2, “Process for regenerating a liquid absorbent” (COMMONWEALTH SCIENTIFIC AND INDUSTRIAL RESEARCH ORGANISATION, priority 2019, dated 2024).
Like-named read-outs stand apart in the source and are kept apart here.

Legend:
[1] = conjugate acid pKa, cited from earlier work
[2] = Accelerated oxidative degradation of benzylamine (CO2/O2, 55° C., 13C-NMR); type: physicochemical; conditions: 1 mol/L, CO2 (1 bar) and O2 (9 bar), 10 days, relative 13C-NMR peak areas
Protocol: A solution of 10 mL of 1 mol/L BZA was placed in a Fischer-Porter vessel. […] Based on relative peak areas approximately 41% of the BZA had been converted to imine.

[3] = Viscosity of absorbent (Anton Parr LOVIS 2000 ME, 40° C.); type: physicochemical; conditions: imine added to fresh absorbent
Protocol: Another sample of the aqueous absorbent, which had initially contained 3 mol/L 3-AMPy and 3 mol/L 2-amino-2-methyl-1-propanol (AMP) and was taken after c.a. 5000 hours (c.a. 208 days) of operation in the pilot plant campaign described in Example 2, was extracted with dichloromethane as described in Example 5. As a result of the extraction, the viscosity of the sample was reduced from 9.9 mPa·s to 6.0 mPa·s (measured at 40° C. using an Anton Parr LOVIS 2000 ME instrument). By comparison, the viscosity of the fresh, CO2 free absorbent was 4.7 mPa·s. The effect of the viscosity reduction is to improve the performance of the absorbent in the plant through better flow properties and reduced mass transfer resistance.
The synthesised imine (structure confirmed by IR spectroscopy) was added to fresh absorbent and the impact on viscosity measured (measured at 40° C. using an Anton Parr LOVIS 2000 ME).

[4] = Extraction of imine dimer into organic solvents (liquid-liquid partition, GC-MS, 13C NMR); type: physicochemical
Protocol: (§1) A sample of the aqueous absorbent, which had initially contained 3 mol/L 3-AMPy and 3 mol/L 2-amino-2-methyl-1-propanol (AMP), was taken after 3800 hours (c.a. 158 days) of operation in the pilot plant campaign described in Example 2. Despite the improved stability of the solution as a result of the AMP, it is evident from FIG. 3 that imine dimer degradation product was present in significant quantities (c.a. 0.2 mol/litre) by this time.
Equal volumes of the sample and dichloromethane were vigorously shaken in a separating funnel and allowed to undergo phase separation. The two phases were then collected and separately analysed by GC-MS. FIGS. 4 and 5 depict gas chromatographs of the organic and aqueous phases respectively, with the peaks identified by mass spectrometry via comparison against libraries of reference spectra.
Samples of the same aqueous absorbent were also extracted with equal volumes of toluene or ethyl acetate. The organic phases after extraction with dichloromethane, toluene and ethyl acetate were analysed by ^13C NMR.

[5] = Extraction of imine dimer by solid absorption on Amberlite XAD-2; type: physicochemical; conditions: Amberlite XAD-2, stirred 2 hours, 13C NMR
Protocol: as §1, with “5000” for “3800”, “208” for “158”, “AMP,” for “AMP, it is evident from FIG. 3 that”, “0.35” for “0.2”
Amberlite XAD-2, a hydrophobic crosslinked polystyrene copolymer resin, was washed 3 times in deionized water followed by washing 3 times in dichloromethane (DCM). The cleaned beads were mixed with the absorbent sample that had been exposed to 5000 hours of flue gas. The mixture was stirred for 2 hours to allow the hydrophobic components to adhere to the polymer resin. The mixture was filtered to remove the water soluble portion of the degraded amine absorbent. The beads were washed with water and this water added to the filtrate. The beads were then washed with 3 portions of DCM, and the collected DCM was partially evaporated.
Very little amine was extracted into the beads and carried over to the DCM wash, as evidenced by the lack of peaks near 42 ppm (these peaks are present in the sample and aqueous filtrate spectra). […]

[6] = Hydrolysis of imine dimer under acidic aqueous conditions; type: physicochemical; conditions: acetic acid and water with DCM solution, room temperature, 24 hours
Description: The imine of Formula (II) is found to be unstable in acidic aqueous conditions. For the case where the degradation product is extracted from the liquid absorbent into an organic solvent, hydrolysis may thus be achieved by contacting the separated organic phase with an acidified aqueous phase, for example containing a catalytic amount of acetic acid. After suitable mixing and time for hydrolysis, the two phases are separated by conventional liquid-liquid separation techniques, with the regenerated amine of Formula (I) partitioned into the aqueous phase and the less polar aldehyde of Formula (III) remaining in the organic phase. The aqueous phase, now containing a first portion of regenerated amine of Formula (I), may then be recycled to the gas absorption process. It will be appreciated that a theoretical maximum of 50 mol % of the degraded amine may be recovered by this process step, since each molecule of imine incorporates two amine molecules.
A sample of the aqueous absorbent, which had initially contained 3 mol/L 3-AMPy and 3 mol/L 2-amino-2-methyl-1-propanol (AMP) and was taken after c.a. 3800 hours (c.a. 158 days) of operation in the pilot plant campaign described in Example 2. The sample was shaken with an equal volume of dichloromethane (DCM) in a separating funnel for 1 minute. The phases were then allowed to separate and each phase was collected separately. […]

[7] = Accelerated oxidative degradation of diethanolamine solutions with sacrificial amine (CO2/O2, 55° C., 13C-NMR); conditions: 5.9 mol/L DEA and 0.1 mol/L additive, CO2 (1 bar), O2 (9 bar), 115 hours
Protocol: The effect of 3-aminomethylpyridine (3-AMPy) and benzylamine (BZA) on the degradation of DEA was investigated using accelerated degradation conditions designed to simulate longer-term degradation in a gas capture process. DEA solutions were thus prepared as follows: i) 6 mol/L DEA; ii) 5.9 mol/L DEA and 0.1 mol/L BZA; and iii) 5.9 mol/L DEA and 0.1 mol/L 3-AMPy. Each solution (10 ml) was placed in a Fischer-Porter vessel. The vessels were sealed and the remaining headspace of the vessels was filled with CO2 (1 bar) and O2 (9 bar). The liquid phase in the vessels was stirred via magnetic stirring bars and heated to 55° C. by immersion in a water bath for 115 hours.
Samples were then taken and analysed by ^13C-NMR spectroscopy (Bruker Avance 400).

Row | Compound | pKa at 25° C. ([1]; table in description) | pKa at 25° C. ([1]; table of Example 4) | further results
1 | CC(N)CO (stereo not drawn) [2-amino-1-propanol] | 9.5 | 9.5 | 
2 | NCC(=O)[O-].[Na+] [sodium glycinate] | 9.6 | 9.6 | 
3 | OCC1CCNCC1 [4-piperidinylmethanol] |  | 10.6 | 
4 | NCc1ccccc1 [BZA, benzylamine] |  |  | amine converted to imine [2]: approximately 41%
5 | C(=NCc1cccnc1)c1cccnc1 [imine dimer] |  |  | impact on viscosity of fresh absorbent [3]: increased with the concentration of synthetic imine added; extraction into organic phase ([4]; dichloromethane, toluene or ethyl acetate, equal volumes, 13C NMR): successful and selective extraction; phase distribution after extraction ([4]; equal volumes of used absorbent sample and dichloromethane, GC-MS): almost exclusively present in the organic phase; extraction by hydrophobic resin beads [5]: majority of the imine was extracted; stability under acidic aqueous conditions [6]: unstable
6 | OCC1CCCCN1 (stereo not drawn) [2-piperidinylmethanol] |  | 10.1 | 
7 | NCCS(=O)(=O)[O-].[K+] [potassium taurate] | 9.1 | 9.1 | 
8 | NCc1cccnc1 [3-(aminomethyl)pyridine] |  |  | DEA degradation (13C-NMR peak at 67 ppm) in presence of sacrificial amine [7]: this degradation has not occurred
